From patent US9562053B2, “Benzo-fused heterocyclic derivatives useful as agonists of GPR120” (Janssen Pharmaceutica NV, priority 2013, dated 2017)

Molecular target: T1, long form of human GPR120 (Homo sapiens, UniProt Q5NUL3)
T1 construct: host or cells: PathHunter CHO-K1 GPR120 β-Arrestin Cell Line
T1 sequence (Q5NUL3 1-377 isoform Q5NUL3-1): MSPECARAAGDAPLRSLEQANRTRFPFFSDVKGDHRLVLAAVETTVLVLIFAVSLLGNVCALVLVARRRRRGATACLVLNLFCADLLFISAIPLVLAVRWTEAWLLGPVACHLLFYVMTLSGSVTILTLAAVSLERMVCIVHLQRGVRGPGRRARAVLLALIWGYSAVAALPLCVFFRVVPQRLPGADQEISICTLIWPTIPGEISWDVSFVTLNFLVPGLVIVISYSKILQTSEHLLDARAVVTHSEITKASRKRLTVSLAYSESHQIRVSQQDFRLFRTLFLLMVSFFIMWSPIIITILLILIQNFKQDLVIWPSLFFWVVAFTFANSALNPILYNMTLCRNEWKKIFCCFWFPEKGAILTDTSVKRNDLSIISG
Assay: Human GPR120 DiscoveRx PathHunter Beta-Arrestin Assay, Procedure β-arrestin A (3000 cells per well)
Type: cell-based
Conditions: read-out: GPR120 B-arrestin A EC50
Description: The binding of an agonist (medium/long chain fatty acids or small molecule agonists) to the G-protein-coupled receptor GPR120 activates phospholipase C, leading to release of intracellular Ca^+2 through the generation of inositol 1,4,5-trisphosphate (InsP3 or IP3). GPR120 activation can also trigger intracellular signaling via recruitment of β-Arrestin. In the present method, agonist-induced activation of the human GPR120 receptor is monitored through the use of PathHunter CHO-K1 GPR120 β-Arrestin Cell Line engineered by DiscoveRx, as detailed below. The cell lines are designed to co-express both the ProLink/Enzyme Donor (PK)-tagged GPCR and the Enzyme Activator (EA)-tagged β-Arrestin fusion proteins. Upon GPR120 receptor stimulation/activation, the EA-tagged β-Arrestin portion is translocated to the tagged receptor, where the two enzyme fragments are brought within close proximity. Under these conditions, these fragments can interact and form an active Beta-gal enzyme complex through Enzyme Fragment Complementation (EFC). This active Beta-gal complex can enzymatically hydrolyse the substrate to produce a detectable light signal; therefore, activation as a function of agonist concentration can be expressed as an EC50 value to determine relative compound activities. This in vitro assay therefore serves to assess compound agonist activity of the GPR120.
In Procedure β-arrestin A, the cell used were PathHunter CHO-K1 GPR120 β-Arrestin Cell Line, expressing the long form of human GPR120 (Genbank accession number NM_181745), with 3000 cells per well.
The selected CHO-K1 GPR120 β-Arrestin cells were cultured in Ham's F12 media supplemented with 10% fetal bovine serum (FBS), 1% Glutamine, 1×p/s, 800 μg/ml G418 and 300 μg/ml Hygromycin B (for selection). Cell stocks were maintained and grown in a sub-confluent state using standard cell culture procedures. The day before the experiment, the cells were harvested with non-enzymatic cell dissociation buffer and re-suspended in complete growth media at the desired concentration. A Corning 384-plate was then seeded with the proper number of cells in a volume of 25 μL, per well. The seeded plates were incubated overnight at 37° C.
On the day of the experiment, the Assay Buffer containing (a) HBSS with Ca^++ and Mg^++, (b) 20 mM HEPES, and (c) 0.1% BSA stabilizer (pH 7.4) was prepared. The growth medium was gently removed from the cell plates and 20 μL of Assay Buffer added to each well. The plate was then incubated at 37° C. for 60 mins. Test compounds were serially diluted in Assay Buffer to desired concentrations (more particularly, to one or more of the following μM concentrations: 25 μM, 12.5 μM, 6.25 μM, 3.125 μM, 1.562 μM, 0.781 μM, 0.391 μM, 0.195 μM, 0.098 μM, 0.049 μM, 0.024 μM, 0.012 μM). Five μl of compound dilution was then added to each well and the plate incubated at 37° C. for 90 mins. The detection reagents were prepared according to the manufacture's instruction. Twelve μL of the detection reagents were added to each well and the plate incubated at room temperature for 60 mins.
The plates were read on an EnVision instrument, using Protocol name: Luminescence, Plate type: 384 Costar, Measurement height: 3 mm, Measurement time: 1 s, Aperture: 384 Plate aperture. The % activity relative to the positive control was calculated using the following equation:
The % Activity values were plotted versus the concentration of test compound and fitted to a sigmoidal dose-response curve with a Hill slope=1 (fixed value) using nonlinear regression with GraphPad Prism 5.0 to calculate the EC50 values. The Fitting Equation was: Y=Bottom+(Top−Bottom)/(1+10^((LogEC50−X)*HillSlope)), where X is the log of the concentration and Y is the response.

SMILES | EC50
CCc1cc2cc(F)cc(COc3ccc(CCC(=O)O)c(C)c3C)c2o1 [Compound 3, 3-{4-[(2-Ethyl-5-fluoro-1-benzofuran-7-yl)methoxy]-2,3-dimethylphenyl}propanoic acid] | 327 nM
CCc1cc2cc(Cl)c(CC)c(COc3ccc(CCC(=O)O)c(C)c3C)c2o1 [Compound 61, 3-{4-[(5-Chloro-2,6-diethyl-1-benzofuran-7-yl)methoxy]-2,3-dimethylphenyl}propanoic acid] | 190 nM
Cc1cc2cc3c(c(COc4ccc(CCC(=O)O)c(C)c4C)c2o1)OCO3 [Compound 82, 3-{2,3-Dimethyl-4-[(6-methylfuro[2,3-f][1,3]benzodioxol-4-yl)methoxy]phenyl}propanoic acid] | 851 nM
Cc1oc2cccc(COc3ccc(CCC(=O)O)c(C)c3C)c2c1C [Compound 60, 3-{4-[(2,3-Dimethyl-1-benzofuran-4-yl)methoxy]-2,3-dimethylphenyl}propanoic acid] | 706 nM
Cc1cc2cc(OC(F)(F)F)cc(COc3ccc(CCC(=O)O)c(C)c3C)c2o1 [Compound 36, 3-(2,3-Dimethyl-4-{[2-methyl-5-(trifluoromethoxy)-1-benzofuran-7-yl]methoxy}phenyl)propanoic acid] | 85 nM
CCCc1cc2cc(Cl)cc(COc3ccc(CCC(=O)O)c(C)c3C)c2o1 [Compound 31, 3-{4-[(5-Chloro-2-propyl-1-benzofuran-7-yl)methoxy]-2,3-dimethylphenyl}propanoic acid] | 232 nM
COCc1cc2cc(F)cc(COc3ccc(CCC(=O)O)c(C)c3C)c2o1 [Compound 21, 3-(4-{[5-Fluoro-2-(methoxymethyl)-1-benzofuran-7-yl]methoxy}-2,3-dimethylphenyl)propanoic acid] | 458 nM
CCCc1cc2cc(C(F)(F)F)cc(COc3ccc(CCC(=O)O)c(C)c3C)c2o1 [Compound 37, 3-(2,3-Dimethyl-4-{[2-propyl-5-(trifluoromethyl)-1-benzofuran-7-yl]methoxy}phenyl)propanoic acid] | 271 nM
Cc1nc2cc(Cl)cc(COc3ccc(CCC(=O)O)c(C)c3C)c2o1 [Compound 84, 3-{4-[(5-Chloro-2-methyl-1,3-benzoxazol-7-yl)methoxy]-2,3-dimethylphenyl}propanoic acid] | 434 nM
Cc1c(CCC(=O)O)ccc(OCc2cc(Cl)cc3cnn(C)c23)c1C [Compound 7, 3-{4-[(5-Chloro-1-methyl-1H-indazol-7-yl)methoxy]-2,3-dimethylphenyl}propanoic acid] | 108 nM
CCc1cc2cc(Cl)c(OCC(F)(F)F)c(COc3ccc(CCC(=O)O)c(C)c3C)c2o1 [Compound 64, 3-(4-{[5-Chloro-2-ethyl-6-(2,2,2-trifluoroethoxy)-1-benzofuran-7-yl]methoxy}-2,3-dimethylphenyl)propanoic acid] | 271 nM
Cc1cc2cc(Cl)c(C)c(COc3c(F)cc(CCC(=O)O)cc3F)c2o1 [Compound 86, 3-{4-[(5-Chloro-2,6-dimethyl-1-benzofuran-7-yl)methoxy]-3,5-difluorophenyl}propanoic acid] | 460 nM
Cc1cc2cc3c(c(COc4ccc(CCC(=O)O)c(C)c4C)c2o1)OC(F)(F)O3 [Compound 89, 3-{4-[(2,2-Difluoro-6-methylfuro[2,3-f][1,3]benzodioxol-4-yl)methoxy]-2,3-dimethylphenyl}propanoic acid] | 119 nM
CCCc1cc2cc(OC(F)F)cc(COc3ccc(CCC(=O)O)c(C)c3C)c2o1 [Compound 77, 3-(4-{[5-(Difluoromethoxy)-2-propyl-1-benzofuran-7-yl]methoxy}-2,3-dimethylphenyl)propanoic acid] | 176 nM
CCc1cc2cc(Br)cc(COc3ccc(CCC(=O)O)c(C)c3C)c2o1 [Compound 45, 3-{4-[(5-Bromo-2-ethyl-1-benzofuran-7-yl)methoxy]-2,3-dimethylphenyl}propanoic acid] | 95 nM
CCc1cc2cc(Cl)c(OC)c(COc3ccc(CCC(=O)O)c(C)c3C)c2o1 [Compound 44, 3-{4-[(5-Chloro-2-ethyl-6-methoxy-1-benzofuran-7-yl)methoxy]-2,3-dimethylphenyl}propanoic acid] | 230 nM
CCc1cc2cc(Cl)cc(COc3ccc(CCC(=O)O)c(C)c3C)c2o1 [Compound 11, 3-{4-[(5-Chloro-2-ethyl-1-benzofuran-7-yl)methoxy]-2,3-dimethylphenyl}propanoic acid] | 283 nM
Cc1cc2cc(Cl)cc(COc3c(F)cc(CCCO)cc3F)c2s1 [Compound 93, 3-{4-[(5-Chloro-2-methyl-1-benzothiophen-7-yl)methoxy]-3,5-difluorophenyl}propan-1-ol] | 536 nM
CCCc1cc2cc(OC(F)(F)F)cc(COc3ccc(CCC(=O)O)c(C)c3C)c2o1 [Compound 35, 3-(2,3-Dimethyl-4-{[2-propyl-5-(trifluoromethoxy)-1-benzofuran-7-yl]methoxy}phenyl)propanoic acid] | 190 nM
CCc1cc2cc(Cl)c(OC(C)C)c(COc3ccc(CCC(=O)O)c(C)c3C)c2o1 [Compound 65, 3-(4-{[5-Chloro-2-ethyl-6-(1-methylethoxy)-1-benzofuran-7-yl]methoxy}-2,3-dimethylphenyl)propanoic acid] | 240 nM
Cc1c(CCC(=O)O)ccc(OCc2cc(OC(F)(F)F)cc3cc(CC(F)F)oc23)c1C [Compound 96, 3-(4-{[2-(2,2-Difluoroethyl)-5-(trifluoromethoxy)-1-benzofuran-7-yl]methoxy}-2,3-dimethylphenyl)propanoic acid] | 148 nM
Cc1cc2cc(OC(F)(F)F)cc(COc3ccc(CCC(=O)O)c4c3CCC4)c2o1 [Compound 55, 3-(7-{[2-Methyl-5-(trifluoromethoxy)-1-benzofuran-7-yl]methoxy}-2,3-dihydro-1H-inden-4-yl)propanoic acid] | 73 nM
CCc1cc2cc(Cl)c(OCC(C)C)c(COc3ccc(CCC(=O)O)c(C)c3C)c2o1 [Compound 67, 3-(4-{[5-Chloro-2-ethyl-6-(2-methylpropoxy)-1-benzofuran-7-yl]methoxy}-2,3-dimethylphenyl)propanoic acid] | 221 nM
Cc1c(CCC(=O)O)ccc(OCc2cc(Cl)cc3cc(CC(F)F)oc23)c1C [Compound 87, 3-(4-{[5-Chloro-2-(2,2-difluoroethyl)-1-benzofuran-7-yl]methoxy}-2,3-dimethylphenyl)propanoic acid] | 409 nM
Cc1c(CCC(=O)O)ccc(OCc2cc(Cl)cc3cc(C=CF)oc23)c1C (mixture of isomers) [Compound 88, 3-(4-((5-Chloro-2-(2-fluorovinyl)benzofuran-7-yl)methoxy)-2,3-dimethylphenyl)propanoic acid] | 594 nM
Cc1cc2cc(Cl)c(C)c(COc3ccc(CCC(=O)O)c(C)c3C)c2o1 [Compound 85, 3-{4-[(5-Chloro-2,6-dimethyl-1-benzofuran-7-yl)methoxy]-2,3-dimethylphenyl}propanoic acid] | 238 nM
CCc1cc2cc(Cl)c(C)c(COc3ccc(CCC(=O)O)c(C)c3C)c2o1 [Compound 40, 3-{4-[(5-Chloro-2-ethyl-6-methyl-1-benzofuran-7-yl)methoxy]-2,3-dimethylphenyl}propanoic acid] | 107 nM
